Laboratory results from patent US20250064724A1, “MODULAR FIELD-STABLE BIO-ARTIFICIAL BLOOD SUBSTITUTE” (VIRGINIA COMMONWEALTH UNIVERSITY, priority 2021, published 2025).

Assays:
[1] = tested on: platelet IIb/IIIa receptor; conditions: in vivo
Description: The hypocoagulable state and functional hypofibrinogenemia that exists immediately after severe blood loss and PEG-20 k resuscitation is mitigated by the concurrent addition of reconstituted lyophilized human fibrinogen (RiaSTAP®). The effects of severe blood loss after hemorrhage leads to direct depletion of clotting factors including fibrinogen. Furthermore, resuscitation with PEG-20 k IV solution causes rapid and long acting volume expansion by the osmotic movement of isotonic fluid from the intracellular and interstitial spaces back into the intravascular space, which further dilutes fibrinogen concentrations. […] Together, these forces tend to dilute out plasma fibrinogen concentrations that likely contribute to both the transient hypocoagulable state and the functional hypofibrinogenemia seen after PEG-20 k resuscitation in severe blood loss. Therefore, it makes sense that a simple add back of fibrinogen to the system after PEG-20 k IV solution resuscitation will correct the defect and improve coagulation and platelet function. […]
Changes in coagulation and platelet function is measured in the controlled lethal shock model in adult anesthetized rats in groups that receive PEG-20 k IV solution alone and those that receive PEG-20 k IV solution and supplemental human fibrinogen (200 mg/kg, IV, in 300 μl LR). […]

shocked rats [2] = test: Example 3: PEG-20 k and delayed or nitric oxide modified HBOC in rodent lethal hemorrhagic shock; format: in vivo, rat; conditions: Example 3, present tense
Description: Rats are bled to 35 mmHg and held there until lactate reaches 9-10 mM, at which time, LVR solutions are given to resuscitate them. Thirty minutes after resuscitation, another 10% blood volume is removed and the plasma component is immediately separated and given back. A loop of distal ileum is exposed and a 1 cm enterotomy is made along the anti-mesenteric border to access the mucosal surface for hourly recordings of capillary blood flow by Orthogonal Polarization Spectral Imaging (OPSI) and for biopsies of bowel mucosa at various times before. The biopsies are used for histological analysis and for nitric oxide metabolism studies ex-vivo in a tissue culture system.
The albumin solution is a control for both the protein and oncotic effects of the HBOC per se and for the delayed volume administration at 2 and 4 hours after the initial PEG-20 k resuscitation. The total volume infusions for these studies is maintained at 6.8 ml/kg to remain in the low volume range (10% estimated blood volume). All surgical preparations are sterile so any animals surviving after 5 hours from resuscitation can be recovered the next day. N=10 rats per group. […]
In both Part 1 and Part 2, the primary measured outcomes include the rate of oxygen debt repayment on the first operative day and the re-accumulation of new oxygen debt the following days in rats that survive the initial 5-hour intra-operative observation period. […] Other secondary outcomes measured in each experiment include MAP, blood labs, intestinal microcirculation measured with orthogonal polarization spectral imaging (OPSI) through a small enterotomy in the distal ileum, plasma Th1 cytokines, terminal bowel histology analysis, and subject survival time. Finally, local tissue production of nitric oxide, nitrosothiols, and nitric oxide metabolites is assessed from serial bowel mucosa biopsies using incubations of tissue in a Dubanoff metabolic incubator and a Sievers-Style chemiluminescence NO analyzer.

anesthetized rats [3] = conditions: literature reference (22); cited from earlier work
[4] = tested on: nitric oxide synthase (NOS); conditions: cited from earlier work; for blockade of the L-Arginine effect in crystalloid resuscitation: competitive NOS inhibitors
anesthetized rats [5] = conditions: 300 mg/kg L-Arginine with 6.8 ml/kg HBOC-201 IV, listed as L-Arg
Description: This hypertension is believed due to the local scavenging of nitric oxide in the vessel wall. As the normal vasodilator tone produced by basal nitric oxide is removed by the HBOC hemoglobin, the vasoconstrictor tone now prevails and the blood pressure rises secondary to vasoconstriction of the resistance vessels.
Studies were designed to test how nitric oxide substrate loading before HBOC prevents or attenuates the NO scavenging effects of the HBOC on physiological, biochemical, and survival outcomes.

shocked rats [6] = test: Example 4: fibrinogen add back after PEG-20 k resuscitation, controlled and uncontrolled hemorrhage in rats; format: in vivo, rat; conditions: fibrinogen after PEG-20 k IV solution, controlled or uncontrolled hemorrhagic shock
Description: Changes in coagulation and platelet function is measured in the controlled lethal shock model in adult anesthetized rats in groups that receive PEG-20 k IV solution alone and those that receive PEG-20 k IV solution and supplemental human fibrinogen (200 mg/kg, IV, in 300 μl LR). The control group also receives 300 ul LR without RiaSTAP®. Samples of whole rat blood (1.0-ml) are taken at baseline and at various times after resuscitation for thromboelastography (TEG) analysis of coagulation and platelet function. Other assays are done to measure fibrinogen levels, intrinsic and extrinsic coagulation pathway coagulation, and platelet mapping studies are conducted to answer some mechanistic questions about platelet function defects. Samples are collected out to 4 hours, which is the time when coagulation and platelet function begins to return to baseline levels after PEG-20 k resuscitation. Each group uses 10 adult Sprague-Dawley rats.
Coagulation and platelet function outcomes are tested by using a clinically relevant model of mixed polytrauma hemorrhagic shock that involves severe bleeding from both controllable and uncontrollable sources. Our lab has developed a rodent model of severe hemorrhagic shock where tail bleeding (controlled source) is combined with blood loss from an abdominal penetrating injury to the spleen (splenic laceration). […]

Molecule: polyethylene glycol [PEG-20 k]
- coagulopathy on TEG [1]: minor coagulopathy on TEG
- time when coagulation and platelet function begins to return to baseline levels [1]: 4 h

Molecule: COC(=O)[C@@H](N)CCCNC(=N)N[N+](=O)[O-] [L-NAME, L-Nitro Arginine Methyl Ester]
- blockade of the L-Arginine effect with HBOC (shocked rats [2]): this effect is blocked
- reversal of the L-Arg blood pressure effect by nitric oxide synthetase inhibitor (anesthetized rats [3]): reversal
- blockade of the L-Arginine effect in crystalloid resuscitation [4]: blocked

Molecule: N=C(N)NCCC[C@H](N)C(=O)O [L-Arginine]
- resuscitation outcome with L-Arginine before HBOC (shocked rats [2]; after PEG-20 k): Improvements are seen
- effect of co-administered L-Arginine on the blood pressure response to HBOC (anesthetized rats [5]): caused vasodilatation that caused the blood pressure to drop
- crystalloid resuscitation outcome with L-Arginine ([4]; severe hemorrhagic shock, earlier work of the lab (20)): dramatically improved

Molecule: fibrinogen
- coagulation outcomes, bleeding times and volumes (shocked rats [6]): reduces bleeding
- coagulation outcomes, bleeding times and volumes (shocked rats [6]; listed as concentrated fibrinogen): significantly improves coagulation outcomes and decreases uncontrolled bleeding times and volumes

Molecule: N=C(N)NCCC[C@@H](N)C(=O)O (racemic) [D-Arginine]
- blockade of the L-Arginine effect with HBOC (shocked rats [2]): this effect is blocked
- blockade of the L-Arginine effect in crystalloid resuscitation [4]: blocked
